Data: EP4108244A1, “SS-LACTAM ANTIBIOTIC WITH SIGNIFICANT ACTIVITY AGAINST CANCER E.G. COLON MALIGNANCIES” (priority 2021, dated 2022)

Assays:
HCT-116 cells [1] = experiment: MTT metabolic activity assay; assay type: cell-based, human; conditions: 48 h post-treatment, CFT 100 µg/mL, CFP 50 µg/mL combined with 5-FU
RAW 264.7 cells = experiment: MTT metabolic activity assay on macrophages; assay type: cell-based, murine
Description: Cells were plated at 2^∗104cells/ml in 96-well plates and incubated overnight. The following day, cells were treated in triplicate with Ceftazdime or 5-fluorouracil for 24-48 h, depending on the cell line used. Metabolic activity of the cells was studied using the MTT assay that measures the ability of metabolically active cells to convert tetrazolium salt into a blue formazan product, the absorbance of which is recorded at 540 nm by an ELISA reader (Bio-Rad iMark Microplate Reader).

HCT-116 cells [2] = experiment: Xenograft model of colon cancer cells, tumor growth; assay type: in vivo, NOD/SCID mice
Description: Twelve NOD/SCID mice were randomly distributed into two groups (6 mice/group). HCT-116 colon cancer cells (3.5 million) suspended in sterile physiological solution (0.9% NaCl) were injected subcutaneously into the flank of 4 to 6-week old mice. Animals were kept in a light- and temperature-controlled environment and provided with food and water ad libitum. The tumor size was monitored and determined three times per week using a sterile Vernier caliper. Tumor volume was calculated by the following formula: Volume=π/6^∗(length × width × height). […] Growth delay was assessed by comparing the size of tumors in treated animals to those of control animals. Ethical approval was obtained before the beginning of the experiments.

[3] = Body weight and survival in the xenograft model; assay type: in vivo, NOD/SCID mice
Description: Twelve NOD/SCID mice were randomly distributed into two groups (6 mice/group). HCT-116 colon cancer cells (3.5 million) suspended in sterile physiological solution (0.9% NaCl) were injected subcutaneously into the flank of 4 to 6-week old mice. Animals were kept in a light- and temperature-controlled environment and provided with food and water ad libitum. The tumor size was monitored and determined three times per week using a sterile Vernier caliper. Tumor volume was calculated by the following formula: Volume=π/6^∗(length × width × height). Once the tumor size reached seven mm^3, mice were treated three times per week for 21 days with intraperitoneal injections of vehicle (control group) or ceftazidime (10 mg/mouse). Growth delay was assessed by comparing the size of tumors in treated animals to those of control animals. Ethical approval was obtained before the beginning of the experiments.

[4] = three weeks post-treatment, 10mg/mouse intraperitoneal three times per week

CC(C)(O/N=C(\C(=O)N[C@@H]1C(=O)N2C(C(=O)[O-])=C(C[n+]3ccccc3)CS[C@H]12)c1csc(N)n1)C(=O)O [CFT, (6R,7R)-7-[[(2Z)-2-(2-amino-1,3-thiazol-4-yl)-2-(2-carboxypropan-2-yloxyimino)acetyl]amino]-8-oxo-3-(pyridin-1-ium-1-ylmethyl)-5-thia-1-azabicyclo[4.2.0]oct-2-ene-2-carboxylate]
effect on 5-FU's effect on metabolic activity (in words) (HCT-116 cells [1]): antagonized 5-FU's effect | metabolic activity of macrophages (in words) (RAW 264.7 cells): restored to control untreated cells | tumor growth after stopping treatment (in words) (HCT-116 cells [2]; mice exposed for three weeks, then treatment stopped): the tumor did not grow further | inhibition of tumor volume vs. control group (HCT-116 cells [2]; [4]): 95% | tumor size (volume of xenografts) (HCT-116 cells [2]; [4]): 45.3 mm^3 | inhibition of tumor volume, already established tumors (HCT-116 cells [2]; treatment started when tumor volume was around 990 mm^3, vs. control untreated mice): around 50% | weight lost ([3]; after three weeks of treatment): 6.8% | body weight ([3]; after three weeks of treatment, 10 mg/mouse): 19.8 g | average weight of the mice ([3]; day of the first treatment): 21.3 g | mortality (in words) ([3]; three weeks of treatment): none of the animals died | protective effect on body weight ([3]; vs. control animals, three weeks): 58%
